According to PubChem BioAssay (NCI):
Values joined by “and” are separate entries in the source; they are usually repeats but may differ in a detail not shown here. Equal values may be shown once.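 The compound was tested at five concentrations on cells cultured in 96-well plates, with a 48-hour exposure period. GI50 is the concentration that inhibits growth by half. TGI marks complete inhibition of growth.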

Assays:
Experiment in all cases: growth of human tumour cells (NCI), 48 h
SK-MEL-5 melanoma = test system: SK-MEL-5 melanoma
NCI-H226 lung = test system: NCI-H226 lung
M14 melanoma = test system: M14 melanoma
HCT-116 colon = test system: HCT-116 colon
SF-295 CNS = test system: SF-295 CNS
TK-10 renal = test system: TK-10 renal
OVCAR-4 ovarian = test system: OVCAR-4 ovarian
HCT-15 colon = test system: HCT-15 colon
HS 578T breast = test system: HS 578T breast
RXF 393 renal = test system: RXF 393 renal

Row | Structure (SMILES) | TGI (SK-MEL-5 melanoma) | TGI (NCI-H226 lung) | TGI (M14 melanoma) | TGI (HCT-116 colon) [µM] | TGI (SF-295 CNS) | TGI (TK-10 renal) [µM] | TGI (OVCAR-4 ovarian) | TGI (HCT-15 colon) [µM] | TGI (HS 578T breast) [µM] | TGI (RXF 393 renal) | GI50 (SK-MEL-5 melanoma) [µM] | GI50 (NCI-H226 lung) [µM] | GI50 (M14 melanoma) [µM] | GI50 (HCT-116 colon) [µM] | GI50 (SF-295 CNS) [µM] | GI50 (TK-10 renal) [µM] | GI50 (OVCAR-4 ovarian) [µM] | GI50 (HCT-15 colon) [µM] | GI50 (HS 578T breast) [µM] | GI50 (RXF 393 renal) [µM]
1 | C=CC1(C)CCC2C(=CCC3C2(C)CC(O)C(O)C3(C)COC2OC(CO)C(O)C(O)C2O)C1 (centres undefined) | > 100 µM | > 100 µM | > 100 µM | > 100 | > 100 µM | > 100 | > 100 µM | > 100 | > 100 |  |  |  |  |  |  |  |  |  |  | 
2 | O=S1OC(c2ccccc2)(c2ccccc2)C(c2ccccc2)(c2ccccc2)O1 | > 100 µM | > 100 µM | > 100 µM | > 100 | > 100 µM | > 100 | > 100 µM | > 100 |  | > 100 µM |  |  |  |  |  |  |  |  |  | 
3 | C/C(CN1C(=O)c2ccccc2C1=O)=N\NS(=O)(=O)c1ccc2ccccc2c1 | > 100 µM | > 100 µM | > 100 µM | > 100 | > 100 µM | > 100 | > 100 µM | > 100 |  |  |  |  |  |  |  |  |  |  |  | 
4 | C=CCC1(O)c2ccccc2C(=O)c2c(OCC(=O)OCC)ccc(OCC(=O)OCC)c21 (centres undefined) | > 100 µM | > 100 µM | > 100 µM | > 100 | > 100 µM | > 100 | > 100 µM | > 100 | > 100 |  | > 100 | > 100 | > 100 | > 100 | > 100 | > 100 | > 100 | > 100 | > 100 | 
5 | O=C(CCc1n[nH]c(=S)o1)Nc1cc(Cl)ccc1Cl | > 100 µM | > 100 µM | > 100 µM | 30.8 | > 100 µM | > 100 | > 100 µM | 38.8 |  |  |  |  |  |  |  |  |  |  |  | 
6 | CC[C@@]1(OP(=O)(O)O)C(=O)OCc2c1cc1n(c2=O)Cc2cc3ccccc3nc2-1 | 0.458 µM and 0.46 µM | 1.16 µM and 0.66 µM | 1.87 µM and 5.28 µM | 1.51 | 0.866 µM and 1.97 µM | 88 | 6.44 µM and 4.85 µM |  |  | 3.52 µM and 0.81 µM | 0.126 | 0.0379 | 0.173 |  | 0.0249 | 4.62 |  |  |  | 0.144
7 | Cc1ccc(S(=O)c2ccccc2[N+](=O)[O-])cc1 (centres undefined) | > 100 µM | 85.9 µM | > 100 µM |  | > 100 µM | > 100 | > 100 µM | > 100 |  | > 100 µM |  |  |  |  |  |  |  |  |  | 
8 | N#CC(C(=O)CCCC(=O)Nc1ccccc1[N+](=O)[O-])c1c(Cl)cccc1Cl (centres undefined) | > 100 µM | > 100 µM | > 100 µM | > 100 | > 100 µM | > 100 | > 100 µM | > 100 |  | > 100 µM |  |  |  |  |  |  |  |  |  | 
9 | CN(C)CCC(N)(P(=O)([O-])[O-])P(=O)([O-])[O-].N.N.[Pt+2] | > 100 µM | > 100 µM | > 100 µM | > 100 | > 100 µM | > 100 | > 100 µM | > 100 |  | > 100 µM | > 100 | > 100 | > 100 | > 100 | > 100 | > 100 | > 100 | > 100 |  | > 100
10 | COc1ccc(C2COc3c(ccc(OC)c3OC)C2=O)cc1OC (centres undefined) | > 100 µM | > 100 µM | > 100 µM | > 100 | > 100 µM | > 100 | > 100 µM |  |  | > 100 µM |  |  |  |  |  |  |  |  |  | 
11 | O=C1C2C3CC4C5C3C1C5C1(SCCS1)C42 (centres undefined) | > 100 µM | > 100 µM | > 100 µM | > 100 |  | > 100 | > 100 µM | > 100 |  | > 100 µM |  |  |  |  |  |  |  |  |  | 
12 | NC(N)NCCCc1cn2c(n1)C1CCCN1C(=O)C2Cc1ccccc1 (centres undefined) | > 100 µM | > 100 µM | > 100 µM | > 100 | > 100 µM | > 100 | > 100 µM | > 100 |  | > 100 µM |  |  |  |  |  |  |  |  |  | 
13 | CC1(OCc2ccccc2)C(=O)N2C1NCC2(C)C (centres undefined) | > 100 µM | > 100 µM | > 100 µM | > 100 | > 100 µM | > 100 | > 100 µM | > 100 |  | > 100 µM |  |  |  |  |  |  |  |  |  | 
14 | CCN(CC)C(=O)CCn1ccc(=O)[nH]c1=O | > 100 µM | > 100 µM | > 100 µM | > 100 | > 100 µM | > 100 | > 100 µM | > 100 |  | > 100 µM |  |  |  |  |  |  |  |  |  | 
15 | CC(C)=CC[C@@H]1CC2(CC=C(C)C)C(=O)C(OC3(C(=O)c4ccccc4)C(=O)C4(CC=C(C)C)C[C@@H](CC=C(C)C)C(C)(C)C(CC=C(C)C)(C4=O)C3=O)(C(=O)c3ccccc3)C(=O)C(CC=C(C)C)(C2=O)C1(C)C (some centres undefined) | 1.58 µM | 3.9 µM | 3.13 µM | 2.3 | 2.5 µM | 8.04 |  | 5.23 | 4.67 | 2.69 µM | 0.806 | 1.34 | 1.13 | 0.953 | 1.01 | 1.54 |  | 1.41 | 1.6 | 1.13
16 | Cn1ncnc1[C@@H]1c2n[nH]c(=O)c3cc(F)cc(c23)N[C@H]1c1ccc(F)cc1 | > 100 µM | > 100 µM | > 100 µM | > 100 |  | > 100 | > 100 µM | > 100 | > 100 | > 100 µM | > 100 | > 100 | > 100 | > 100 |  | > 100 | > 100 | > 100 | > 100 | > 100
17 | CC(=O)OC(C)(C)C1CC[C@]2(C)/C=C/C(C)C[C@@H](O)/C=C(\C)CC(O)C12 (some centres undefined) | > 100 µM | > 100 µM | > 100 µM | > 100 | > 100 µM | > 100 | > 100 µM | > 100 |  | > 100 µM |  |  |  |  |  |  |  |  |  | 
18 | O=C(O)CN1CCSc2ccccc2CN(CC(=O)O)CCSc2ccccc2C1 | > 100 µM |  | > 100 µM | > 100 | > 100 µM | > 100 |  | > 100 |  |  |  |  |  |  |  |  |  |  |  | 
19 | C=C(Br)C(C)(Cl)CCC(Br)C(C)(C)Br (centres undefined) | > 100 µM | > 100 µM | > 100 µM | > 100 | > 100 µM | > 100 | > 100 µM | > 100 |  | > 100 µM |  |  |  |  |  |  |  |  |  | 
